What was measured:
[1] = biological target: T1, wild type glucose dehydrogenase (GlucDH) from Bacillus subtilis (Bacillus subtilis, UniProt P12310, A229V/A236S/Q252K); test: Detection of ternary complexes by NADH fluorescence in the cuvette test; assay type: binding
Method: In order to check the existence of ternary complexes consisting of enzyme, reduced coenzyme and glucose or gluconolactone, experiments on the binding of the analyte based on the fluorescence properties of NADH were carried out in the cuvette test.
For this purpose, 1 mg NADH (Roche Company) was dissolved in 1 ml phosphate buffer and the associated fluorescence spectrum was recorded. Subsequently, 10 mg wild type glucose dehydrogenase (GlucDH) from Bacillus subtilis was added whereupon the complex GlucDH-NADH known from the literature was formed, which complex, due to a considerably longer life time of NADH (3 ns compared to 0.4 ns in the free state), yielded a shifted emission maximum at 450 nm (see FIG. 3).
The lowering of the fluorescence which also corresponds to a shortening of the life time is presumably due to the rapid energy depletion by the redox pair NADH-gluconolactone.

[2] = biological target: T1, wild type glucose dehydrogenase (GlucDH) from Bacillus subtilis; details: in the complex GlucDH-NADH; cited from earlier work
[3] = biological target: glucose dehydrogenase from Bacillus subtilis (Bacillus subtilis, UniProt P12310, A229V/A236S/Q252K); assay type: biochemical; details: dry reagent layer with wild type glucose dehydrogenase, blood applied, presence vs absence of gluconolactone
Sequence of glucose dehydrogenase from Bacillus subtilis (P12310 whole entry A229V/A236S/Q252K): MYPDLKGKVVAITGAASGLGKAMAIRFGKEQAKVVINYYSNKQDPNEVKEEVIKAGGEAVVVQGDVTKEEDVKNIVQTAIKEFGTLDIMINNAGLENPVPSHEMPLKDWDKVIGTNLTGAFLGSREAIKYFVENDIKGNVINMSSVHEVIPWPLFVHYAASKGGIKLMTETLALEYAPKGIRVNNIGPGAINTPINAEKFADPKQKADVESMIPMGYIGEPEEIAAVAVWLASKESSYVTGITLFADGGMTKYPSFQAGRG

T1 sequence (P12310 whole entry A229V/A236S/Q252K): as above

Compound: NC(=O)C1=CN([C@@H]2O[C@H](COP(=O)(O)OP(=O)(O)OC[C@H]3O[C@@H](n4cnc5c(N)ncnc54)[C@H](O)[C@@H]3O)[C@@H](O)[C@H]2O)C=CC1 [NADH]
- emission maximum ([1]; NADH in the complex GlucDH-NADH, phosphate buffer): 450 nm
- life time of NADH [2]: 3 ns

Compound: O=C1O[C@H](CO)[C@@H](O)[C@H](O)[C@H]1O [gluconolactone]
- effect of added gluconolactone on the conversion of glucose [3]: considerable slowing down of the conversion
- change of fluorescence on titration of the complex GlucDH-NADH ([1]; binary complex GlucDH-NADH titrated with the substance): lowered the fluorescence
- emission maximum ([1]; complex GlucDH-NADH after titration with gluconolactone): 427 nm

— patent US9359634B2, “Fast reaction kinetics of enzymes having low activity in dry chemistry layers” (Roche Diabetes Care, Inc., priority 2009, dated 2016)
